Assay results: PMC4102551, “Screening and Characterisation of Antimicrobial Properties of Semisynthetic Betulin Derivatives” (PLoS ONE, 2014)
Values after ≈ are worked out from the molar mass of the structure shown. Values joined by “and” are separate entries in the source; they are usually repeats but may differ in a detail not shown here. Identical values can stand only once. Like-named read-outs stand apart in the source and are kept apart here.

Columns and labels:
P. aeruginosa = test system: P. aeruginosa; parameters: method as in earlier work; conditions: ref 32; cited from earlier work
C. albicans ATCC 90028 = test: Broth microdilution assay, C. albicans; assay type: cell-based, Candida albicans; conditions: for inhibition at 50 µM: Candida albicans, ATCC90028, 48 h, read-out: Inhibitory effect (%) C. albicans ATCC 90028
Outline: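 Candida albicans ATCC 90028 was grown on Sabouraud Dextrose Agar at 27°C for 16–18 h, then suspended in sterile 0.9% saline. Broth microdilution in clear 96-well plates mixed equal volumes of yeast suspension and diluted sample. Plates were incubated with agitation at 35°C for 48 h. Absorbance at 620 nm was read at 0, 24 and 48 h, and growth inhibition was expressed as a percentage relative to controls.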

E. faecalis ATCC 29212 = test: Broth microdilution assay, E. faecalis; assay type: cell-based, Enterococcus faecalis; conditions: 50 µM, 24 h, inhibition of growth, mean ± SD; for inhibition at 50 µM: Enterococcus faecalis, ATCC29212, 24 h, read-out: Inhibitory effect (%) E. faecalis ATCC 29212
Outline: (§1)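 Broth microdilution per CLSI/EUCAST in Mueller Hinton II broth, 5×10^5 cfu/mL, 24 h at 37°C with agitation; growth by absorbance at 620 nm versus controls. Compounds first screened at 50 µM.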

Huh-7 cells = test: in vitro; assay type: cell-based, human; conditions: 50 µM
Outline: (§2)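 Cytotoxicity read-out: intracellular ATP (CellTiter-Glo luminescence) in Huh-7 hepatoma cells seeded at 20000 cells/well, cultured overnight, then exposed to compounds for 24 h at 37°C in 5% FBS medium. Polymyxin B sulphate (15000 IU/mL) served as positive control.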

in vitro = assay type: cell-based, human; conditions: human
Outline: as §2

C. albicans = conditions: cited from earlier work
S. aureus ATCC 25923 = test: Broth microdilution assay, S. aureus; assay type: cell-based, Staphylococcus aureus; conditions: 50 µM, 24 h, inhibition of growth, mean ± SD; for inhibition at 50 µM: Staphylococcus aureus, ATCC25923, 24 h, read-out: Inhibitory effect (%) S. aureus ATCC 25923
Outline: as §1

E. coli = test system: E. coli; parameters: method as in earlier work; conditions: ref 32; cited from earlier work
E. aerogenes ATCC 13048 = test: Broth microdilution assay, E. aerogenes; assay type: cell-based, Enterobacter aerogenes; conditions: Klebsiella aerogenes, ATCC13048, 24 h, 50 µM, 24 h, inhibition of growth, mean ± SD; read-out: Inhibitory effect (%) E. aerogenes ATCC 13048
Outline: as §1

E. coli ATCC 25922 = test: Broth microdilution assay, E. coli; assay type: cell-based, Escherichia coli; conditions: Escherichia coli, ATCC25922, 24 h; read-out: Inhibitory effect (%) E. coli ATCC 25922
Outline: as §1

P. aeruginosa ATCC 27853 = test: Broth microdilution assay, P. aeruginosa; assay type: cell-based, Pseudomonas aeruginosa; conditions: Pseudomonas aeruginosa, ATCC27853, 24 h; read-out: Inhibitory effect (%) P. aeruginosa ATCC 27853
Outline: as §1

S. aureus = test system: S. aureus; parameters: method as in earlier work; conditions: ref 32; cited from earlier work
Streptococcus pyogenes = test system: Streptococcus pyogenes; parameters: method as in PMID 29255382; conditions: ref 11; cited from earlier work
[1] = Storage stability of samples; assay type: physicochemical; conditions: ambient temperature, air atmosphere, several years
Description: Betulin 1 is a stable compound, as we have not noticed any degradation of samples even if stored at ambient temperature under air atmosphere for several years. […] Thus, instability issues cannot be seen as a major concern regarding the betulin derivatives of this study.

[2] = test system: S. aureus infected HL cell line; test: Host-pathogen co-culture assay; assay type: cell-based, Staphylococcus aureus; conditions: at the highest concentration (range 0.024–100 µM), 3 days
Description: Briefly, HL cells used as the host cell were seeded at 40000 cells/well on black-walled microplates (Perkin Elmer) and incubated at 37°C, 5% CO2 and 95% humidity for 24 h. Cell monolayers were infected with 2000 cfus of S. aureus in RPMI 1640 media without antibiotics. Compounds were added to the media at different concentrations selected on the basis of the MIC determinations. […] Co-cultures were incubated for 3 days at 37°C, 5% CO2 and 95% humidity. Following the incubation period the cells were washed with 200 µL 6.7 mM PBS, pH 7.4, and finally, 200 µL 6.7 mM PBS, pH 7.4 containing 10 µg/mL fluorescein diacetate (FDA) was added to the cells to evaluate the survival of the host cells. After 45 min incubation at room temperature (RT), fluorescence was measured at 485 nm excitation and 538 nm emission with a Victor plate reader.
For studying simultaneously the efficacy and tolerability of antibacterial compounds, an assay based on co-culturing of a secondary human cell line (HL, derived originally from human lung) and a pathogen was used. […] In the assay, host cells are incubated in the presence of the test sample and are infected with bacteria. After 3 days of incubation, the host cell survival is determined using fluorescein diacetate to measure the viability of the host cells. […]

[3] = test system: B. subtilis, S. aureus, S. pyogenes, Staphylococcus saprophyticus, E. coli, P. aeruginosa and Shigella sonnei; parameters: method as in PMID 23684720; conditions: ref 37; cited from earlier work

C=C(C)[C@@H]1CC[C@]2(CO)CC[C@]3(C)[C@H](CC[C@@H]4[C@@]5(C)CC[C@H](O)C(C)(C)[C@@H]5CC[C@]43C)[C@@H]12 [Compound 1, lup-20(29)-ene-3β, 28-diol]
MIC against P. aeruginosa (P. aeruginosa): 250 µg/mL (≈ 565 µM)
Inhibitory effect (%) C. albicans ATCC 90028 (C. albicans ATCC 90028; 50 µM, 48 h at 35°C, inhibition of growth, mean ± SD): inactive
inhibition at 50 µM (C. albicans ATCC 90028): -27.5 ± 15%
Inhibitory effect (%) E. faecalis ATCC 29212 (E. faecalis ATCC 29212): 19.7±6.2%
inhibition at 50 µM (E. faecalis ATCC 29212): 20%
Cytotoxicity (%) Huh-7 cells (Huh-7 cells; 24 h exposure, ATP content, 5% FBS): 13.7±2.7%
cytotoxicity at 24 h, 50 µM (in vitro; 50 µM, 24 h exposure, ATP content, 5% FBS, read-out: Cytotoxicity (%) Huh-7 cells): 14%
MIC against C. albicans (C. albicans; ref 12): 250 µg/mL (≈ 565 µM)
MIC against C. albicans (C. albicans; ref 41): 180 µg/mL (≈ 407 µM)
inhibition at 50 µM (S. aureus ATCC 25923): -6.7 ± 6.4%
MIC against E. coli (E. coli): 250 µg/mL (≈ 565 µM)
inhibition at 50 µM (E. aerogenes ATCC 13048): 5.7 ± 2.1%
inhibition at 50 µM (E. coli ATCC 25922): 1.3 ± 5.1%
inhibition at 50 µM (P. aeruginosa ATCC 27853): -1.2 ± 2.5%
MIC against S. aureus (S. aureus): 250 µg/mL (≈ 565 µM)
MIC against S. pyogenes (Streptococcus pyogenes): 85 µg/mL (≈ 192 µM)
Stability on storage [1]: stable

C=C(C)[C@@H]1CC[C@]2(C(=O)O)CC[C@]3(C)C(CCC4[C@@]5(C)CCC(=O)C(C)(C)C5CC[C@]43C)C12 (some centres unmarked) [Compound 23, betulonic acid]
inhibition at 50 µM (C. albicans ATCC 90028): 25.2 ± 11%
Inhibitory effect (%) E. faecalis ATCC 29212 (E. faecalis ATCC 29212): 74% and 74.3±0.8%
inhibition at 50 µM (E. faecalis ATCC 29212): > 70%
Activity in host-pathogen co-culture assay [2]: 27%
Cytotoxicity (%) Huh-7 cells (Huh-7 cells; human, 24 h): 17.8±12.6%
cytotoxicity at 24 h, 50 µM (in vitro; Cytotoxicity (%) Huh-7 cells): 18%
Inhibitory effect (%) S. aureus ATCC 25923 (S. aureus ATCC 25923): 51.1±7.3%
inhibition at 50 µM (S. aureus ATCC 25923): 51%
inhibition at 50 µM (E. aerogenes ATCC 13048): 21.8 ± 4.1%
inhibition at 50 µM (E. coli ATCC 25922): 9.1 ± 8.9%
inhibition at 50 µM (P. aeruginosa ATCC 27853): 9.5 ± 2.5%

CC1(C)C=C2[C@H]3CC[C@@H]4[C@@]5(C)CC[C@H](O)C(C)(C)[C@@H]5CC[C@@]4(C)[C@]3(C)CC[C@@]2(C(=O)O)CC1 [MA, morolic acid]
MIC against a panel of seven different bacterial species [3]: ≥ 100 µg/mL
